Key:
[1] = biological target: horse reddish butyrylcholinesterase (BChE, EC 3.1.1.8) (Equus caballus, UniProt P81908); assay: biochemical; details: for IC50: mean ± SEM of three parallel measurements
Description: (§1) The electric eel acetylcholinesterase (AChE, Type–VI-S, EC 3.1.1.7, 425.84 U/mg) and horse reddish butyrylcholinesterase (BChE, EC 3.1.1.8, 11.4 U/mg) were used to determine the anticholinesterase activity. […] After incubation for 15 min at 25 °C, 20 μL 0.5 mM DTNB (5,50-dithiobis(2-nitrobenzoic acid)) and 20 μL acetylthiocholine iodide (0.71 mM) or butyryl-thiocholine chloride (0.2 mM) were added. Then, the absorbance was measured at 412 nm.
(§2) Lineweaver–Burk plots were drawn from the data obtained as a result of the experimental study.[24]

[2] = biological target: T1, electric eel acetylcholinesterase (AChE, Type–VI-S, EC 3.1.1.7) (Electrophorus electricus, UniProt O42275); assay: biochemical; details: for IC50: mean ± SEM of three parallel measurements
T1 construct: purchased Type–VI-S
Description: as §1, §2

T1 sequence (O42275 24-633): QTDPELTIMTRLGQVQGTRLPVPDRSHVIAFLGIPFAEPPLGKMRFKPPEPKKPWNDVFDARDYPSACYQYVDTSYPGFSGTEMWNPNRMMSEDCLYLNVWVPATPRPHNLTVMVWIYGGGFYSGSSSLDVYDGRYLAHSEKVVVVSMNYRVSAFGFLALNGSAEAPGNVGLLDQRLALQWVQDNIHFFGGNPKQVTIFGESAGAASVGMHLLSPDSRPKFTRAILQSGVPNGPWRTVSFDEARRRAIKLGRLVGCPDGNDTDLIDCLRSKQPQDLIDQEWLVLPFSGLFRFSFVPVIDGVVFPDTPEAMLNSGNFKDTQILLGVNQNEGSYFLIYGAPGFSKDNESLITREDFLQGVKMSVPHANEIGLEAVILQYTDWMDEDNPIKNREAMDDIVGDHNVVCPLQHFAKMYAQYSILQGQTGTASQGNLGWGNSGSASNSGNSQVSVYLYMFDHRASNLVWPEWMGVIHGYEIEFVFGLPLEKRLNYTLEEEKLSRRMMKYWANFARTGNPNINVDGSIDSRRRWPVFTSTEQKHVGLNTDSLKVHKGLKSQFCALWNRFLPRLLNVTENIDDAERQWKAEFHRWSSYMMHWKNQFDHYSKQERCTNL
Chain of horse reddish butyrylcholinesterase (BChE, EC 3.1.1.8) (P81908 whole entry): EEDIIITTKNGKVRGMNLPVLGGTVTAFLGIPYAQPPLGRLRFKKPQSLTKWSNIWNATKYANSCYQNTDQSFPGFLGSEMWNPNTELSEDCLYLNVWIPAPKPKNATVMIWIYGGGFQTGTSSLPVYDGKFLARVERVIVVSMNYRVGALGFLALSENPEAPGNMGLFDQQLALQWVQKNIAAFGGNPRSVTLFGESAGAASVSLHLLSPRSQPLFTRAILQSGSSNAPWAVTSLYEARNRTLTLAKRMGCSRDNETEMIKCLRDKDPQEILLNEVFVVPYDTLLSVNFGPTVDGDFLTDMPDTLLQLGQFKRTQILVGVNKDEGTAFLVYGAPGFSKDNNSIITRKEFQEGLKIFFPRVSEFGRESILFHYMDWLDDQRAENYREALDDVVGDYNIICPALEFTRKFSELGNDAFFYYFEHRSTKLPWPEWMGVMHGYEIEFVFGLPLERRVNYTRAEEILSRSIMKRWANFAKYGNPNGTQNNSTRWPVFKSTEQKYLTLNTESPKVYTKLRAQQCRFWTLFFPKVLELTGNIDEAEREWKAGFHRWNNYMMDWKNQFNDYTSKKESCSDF

O=S(=O)(N/N=C/c1ccccc1O)c1ccc(F)cc1 [Compound 1, (E)-4-Fluoro-N′-(2-hydroxybenzylidene)benzenesulfonohydrazide] gave an IC50 [1] of 124.4 ± 0.28 µM and an IC50 [2] of 117.5 ± 0.38 µM.
Compound O=S(=O)(N/N=C/c1ccccc1O)c1ccccc1C(F)(F)F [Compound 2, (E)-N′-(2-Hydroxybenzylidene)-2-(trifluoromethyl)benzenesulfonohydrazide] has an IC50 [1] of 100.1 ± 0.12 µM and an IC50 [2] of 91.77 ± 0.33 µM.
O=S(=O)(N/N=C/c1ccccc1O)c1ccc(C(F)(F)F)cc1 [Compound 4, (E)-N′-(2-Hydroxybenzylidene)-4-(trifluoromethyl)benzenesulfonohydrazide] gave an IC50 [1] of 75.34 ± 0.18 µM and an IC50 [2] of 68.67 ± 0.43 µM.
Work on O=S(=O)(N/N=C/c1ccccc1O)c1cccc(C(F)(F)F)c1 [Compound 3, (E)-N′-(2-Hydroxybenzylidene)-3-(trifluoromethyl)benzenesulfonohydrazide] yielded an IC50 [1] of 119.8 ± 0.17 µM and an IC50 [2] of 104.2 ± 0.56 µM.
O=S(=O)(N/N=C/c1ccccc1O)c1cccc(OC(F)(F)F)c1 [Compound 6, (E)-N′-(2-Hydroxybenzylidene)-3-(trifluoromethoxy)benzenesulfonohydrazide] was tested, and the IC50 [1] was 86.4 ± 0.14 µM and the IC50 [2] was 80.3 ± 0.91 µM.
For O=S(=O)(N/N=C/c1ccccc1O)c1ccccc1OC(F)(F)F [Compound 5, (E)-N′-(2-Hydroxybenzylidene)-2-(trifluoromethoxy)benzenesulfonohydrazide], the IC50 [1] was 69 ± 1.06 µM and the IC50 [2] was 53.1 ± 0.58 µM.
In the case of O=S(=O)(N/N=C/c1ccccc1O)c1ccc(OC(F)(F)F)cc1 [Compound 7, (E)-N′-(2-Hydroxybenzylidene)-4-(trifluoromethoxy)benzenesulfonohydrazide], the “type of inhibition of BChE (Lineweaver–Burk plots)” value [1] is reported as “competitively”, the Ki ([1]; competitive inhibition, read-out: inhibition constant for BChE (Lineweaver–Burk plots)) is reported as 41.7 ± 3.18 µM and the IC50 [1] is reported as 40.3 ± 0.66 µM. The “type of inhibition of AChE (Lineweaver–Burk plots)” value [2] was “competitively”, the “AChE inhibitory activity relative to the standard galantamine” value ([2]; compared with galantamine) was “seven times lower” and the Ki ([2]; competitive inhibition, read-out: inhibition constant for AChE (Lineweaver–Burk plots)) was 28.2 ± 2.51 µM. It also gave an IC50 [2] of 29.1 ± 0.94 µM.

Reference: publication PMC11465619 (ACS Omega, 2024)
